PubChem BioAssay (NCI)
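Values below derive from 48-hour exposures of cells grown in 96-well plates, with endpoints linearly interpolated between the two concentrations bracketing the appropriate inhibition level. At the GI50, growth is halved. The concentration for full growth arrest is given as TGI.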

Legend:
Assay in all cases: DTP human tumour cell line panel, 48 h
A549 NSCLC = system: A549 NSCLC
UACC-62 melanoma = system: UACC-62 melanoma
MALME-3M melanoma = system: MALME-3M melanoma
HCT-15 colon = system: HCT-15 colon
HCC-2998 colon = system: HCC-2998 colon
SNB-19 CNS = system: SNB-19 CNS
TK-10 renal = system: TK-10 renal
HT29 colon = system: HT29 colon
SF-268 CNS = system: SF-268 CNS
OVCAR-3 ovarian = system: OVCAR-3 ovarian
RPMI-8226 leukemia = system: RPMI-8226 leukemia
CCRF-CEM leukemia = system: CCRF-CEM leukemia

O=C1/C(=C/c2cccc([N+](=O)[O-])c2)COc2ccccc21
TGI (A549 NSCLC): > 100 µM
TGI (UACC-62 melanoma): 3.19 µM
TGI (MALME-3M melanoma): > 50.6 µM
TGI (HCT-15 colon): 3.11 µM
TGI (HCC-2998 colon): > 23.4 µM
TGI (SNB-19 CNS): 9.07 µM
TGI (TK-10 renal): > 95.2 µM
TGI (HT29 colon): 6.85 µM
TGI (SF-268 CNS): > 80.3 µM
TGI (OVCAR-3 ovarian): 13.2 µM

COc1ccc(NS(=O)CCc2ccccc2)cc1 (stereo not given)
TGI (A549 NSCLC): > 100 µM
TGI (MALME-3M melanoma): > 100 µM
TGI (HCT-15 colon): > 100 µM
TGI (HCC-2998 colon): > 100 µM
TGI (SNB-19 CNS): > 100 µM
TGI (TK-10 renal): > 100 µM
TGI (HT29 colon): > 100 µM
TGI (RPMI-8226 leukemia): > 100 µM
TGI (SF-268 CNS): > 100 µM
TGI (OVCAR-3 ovarian): > 100 µM
TGI (CCRF-CEM leukemia): > 100 µM

C/C(C=O)=N\Nc1cc(C)c2ccccc2n1
TGI (A549 NSCLC): 43 µM
TGI (UACC-62 melanoma): 28.2 µM
TGI (HCT-15 colon): 26.3 µM
TGI (HCC-2998 colon): 29.3 µM
TGI (SNB-19 CNS): 52 µM
TGI (TK-10 renal): 29.5 µM
TGI (HT29 colon): 30.8 µM
TGI (RPMI-8226 leukemia): 39 µM
TGI (SF-268 CNS): 43.2 µM
TGI (OVCAR-3 ovarian): 29.1 µM
TGI (CCRF-CEM leukemia): 29.3 µM

COc1ccc2c(c1)c(Cc1c(C)n(C)c3ccc(OC)cc13)c(C)n2C
TGI (A549 NSCLC): > 100 µM
TGI (UACC-62 melanoma): > 100 µM
TGI (MALME-3M melanoma): > 100 µM
TGI (HCT-15 colon): > 100 µM
TGI (SNB-19 CNS): > 100 µM
TGI (TK-10 renal): > 100 µM
TGI (HT29 colon): > 100 µM
TGI (RPMI-8226 leukemia): > 100 µM
TGI (SF-268 CNS): > 100 µM
TGI (OVCAR-3 ovarian): > 100 µM
TGI (CCRF-CEM leukemia): > 100 µM

CSc1nc(C)cc(Nc2ccc(O)c(CN3CCCCC3)c2)n1
TGI (A549 NSCLC): > 100 µM
TGI (UACC-62 melanoma): > 100 µM
TGI (MALME-3M melanoma): > 100 µM
TGI (HCT-15 colon): > 100 µM
TGI (SNB-19 CNS): > 100 µM
TGI (HT29 colon): 60.1 µM
TGI (RPMI-8226 leukemia): 71.4 µM
TGI (SF-268 CNS): > 100 µM
TGI (OVCAR-3 ovarian): > 100 µM

CC1=NC(=Cc2ccc(Cl)cc2)C(=O)N1n1c(-c2ccccc2)nc2ccccc2c1=O
TGI (A549 NSCLC): > 100 µM
TGI (UACC-62 melanoma): > 100 µM
TGI (MALME-3M melanoma): > 100 µM
TGI (HCT-15 colon): > 100 µM
TGI (HCC-2998 colon): > 100 µM
TGI (SNB-19 CNS): > 100 µM
TGI (TK-10 renal): > 100 µM
TGI (HT29 colon): > 100 µM
TGI (RPMI-8226 leukemia): > 100 µM
TGI (SF-268 CNS): > 100 µM
TGI (CCRF-CEM leukemia): > 100 µM

CC1CN=C(NCc2ccccc2)S1 (stereo not given)
TGI (UACC-62 melanoma): > 100 µM
TGI (MALME-3M melanoma): > 100 µM
TGI (HCT-15 colon): > 100 µM
TGI (HCC-2998 colon): > 100 µM
TGI (SNB-19 CNS): > 100 µM
TGI (TK-10 renal): > 100 µM
TGI (HT29 colon): > 100 µM
TGI (RPMI-8226 leukemia): > 100 µM
TGI (SF-268 CNS): > 100 µM
TGI (OVCAR-3 ovarian): > 100 µM
TGI (CCRF-CEM leukemia): > 100 µM

Clc1cc(Cl)cc(N2N=C(c3cccc(Nc4ccncc4)c3)CC2c2ccccc2)c1 (stereo not given)
GI50 (UACC-62 melanoma): 1.74 µM
TGI (UACC-62 melanoma): 3.24 µM
GI50 (MALME-3M melanoma): 1.67 µM
TGI (MALME-3M melanoma): 3.16 µM
GI50 (HCT-15 colon): 1.66 µM
TGI (HCT-15 colon): 3.31 µM
GI50 (TK-10 renal): 2.02 µM
TGI (TK-10 renal): 3.98 µM
GI50 (HT29 colon): 1.8 µM
TGI (HT29 colon): 3.73 µM
GI50 (SF-268 CNS): 1.99 µM
TGI (SF-268 CNS): 4.63 µM
GI50 (CCRF-CEM leukemia): 2.92 µM
TGI (CCRF-CEM leukemia): > 100 µM

CC1CCCc2c(-c3ccc(Cl)cc3)nc(N)c(C#N)c21 (stereo not given)
TGI (UACC-62 melanoma): 40.2 µM
TGI (MALME-3M melanoma): > 100 µM
TGI (HCT-15 colon): > 100 µM
TGI (SNB-19 CNS): > 100 µM
TGI (TK-10 renal): > 100 µM
TGI (HT29 colon): > 100 µM
TGI (RPMI-8226 leukemia): 37.9 µM
TGI (SF-268 CNS): > 100 µM
TGI (OVCAR-3 ovarian): > 100 µM
TGI (CCRF-CEM leukemia): > 100 µM

CCn1c(=O)c2c(=O)[nH][nH]c2c2ccccc21
TGI (A549 NSCLC): > 100 µM
TGI (MALME-3M melanoma): > 100 µM
TGI (HCT-15 colon): > 100 µM
TGI (HCC-2998 colon): > 100 µM
TGI (SNB-19 CNS): > 100 µM
TGI (TK-10 renal): > 100 µM
TGI (HT29 colon): > 100 µM
TGI (RPMI-8226 leukemia): > 100 µM
TGI (OVCAR-3 ovarian): > 100 µM
TGI (CCRF-CEM leukemia): > 100 µM

CN(C)c1ccc(C2CC(=O)CC(c3ccc(N(C)C)cc3)C23C(=O)NC(=O)NC3=O)cc1 (stereo not given)
TGI (UACC-62 melanoma): > 25 µM
TGI (MALME-3M melanoma): > 25 µM
TGI (HCT-15 colon): > 25 µM
TGI (HCC-2998 colon): > 25 µM
TGI (SNB-19 CNS): > 25 µM
TGI (TK-10 renal): > 25 µM
TGI (HT29 colon): > 25 µM
TGI (RPMI-8226 leukemia): > 25 µM
TGI (SF-268 CNS): > 25 µM
TGI (OVCAR-3 ovarian): > 25 µM
TGI (CCRF-CEM leukemia): > 25 µM

CN1CC=C(OP(=O)(NCc2ccccc2)N(CCCl)CCCl)CC1 (stereo not given)
TGI (UACC-62 melanoma): > 100 µM
TGI (MALME-3M melanoma): > 100 µM
TGI (HCT-15 colon): > 100 µM
TGI (HCC-2998 colon): > 100 µM
TGI (SNB-19 CNS): > 100 µM
TGI (TK-10 renal): > 100 µM
TGI (HT29 colon): > 100 µM
TGI (RPMI-8226 leukemia): > 100 µM
TGI (SF-268 CNS): > 100 µM
TGI (OVCAR-3 ovarian): > 100 µM
TGI (CCRF-CEM leukemia): > 100 µM

Cc1[nH]c2ncn(/N=C/c3ccccc3)c(=N)c2c1Cc1ccccc1
TGI (A549 NSCLC): > 100 µM
TGI (UACC-62 melanoma): > 100 µM
TGI (HCT-15 colon): > 100 µM
TGI (HCC-2998 colon): > 100 µM
TGI (SNB-19 CNS): > 100 µM
TGI (TK-10 renal): > 100 µM
TGI (HT29 colon): > 100 µM
TGI (RPMI-8226 leukemia): > 100 µM
TGI (SF-268 CNS): > 100 µM
TGI (OVCAR-3 ovarian): > 100 µM
TGI (CCRF-CEM leukemia): > 100 µM

CSC1=N/C(=C\c2cccs2)C(=O)N1CN1CCCCC1
TGI (A549 NSCLC): > 100 µM
TGI (UACC-62 melanoma): > 100 µM
TGI (MALME-3M melanoma): > 100 µM
TGI (HCT-15 colon): > 100 µM
TGI (TK-10 renal): > 100 µM
TGI (HT29 colon): > 100 µM
TGI (RPMI-8226 leukemia): 68.8 µM
TGI (SF-268 CNS): > 100 µM
TGI (OVCAR-3 ovarian): > 100 µM
TGI (CCRF-CEM leukemia): > 100 µM

CCOC(=O)CCc1c(C(=O)OCC)[nH]c(/C=C2/NC(=O)C(C)=C2CC)c1C
TGI (A549 NSCLC): > 100 µM
TGI (UACC-62 melanoma): 19.7 µM
TGI (MALME-3M melanoma): 33.3 µM
TGI (HCT-15 colon): 15.3 µM
TGI (SNB-19 CNS): 37.2 µM
TGI (TK-10 renal): 88.2 µM
TGI (HT29 colon): 39.9 µM
TGI (SF-268 CNS): 29.2 µM
TGI (OVCAR-3 ovarian): 16.1 µM

O=c1c2cc(I)ccc2nc(-c2cccs2)n1Nc1ccccc1
TGI (A549 NSCLC): > 100 µM
TGI (UACC-62 melanoma): > 100 µM
TGI (HCT-15 colon): > 100 µM
TGI (HCC-2998 colon): 50.8 µM
TGI (SNB-19 CNS): 76.6 µM
TGI (HT29 colon): > 100 µM
TGI (RPMI-8226 leukemia): > 100 µM
TGI (SF-268 CNS): > 100 µM
TGI (OVCAR-3 ovarian): 6.52 µM
GI50 (CCRF-CEM leukemia): 50.7 µM
TGI (CCRF-CEM leukemia): > 100 µM

COc1cc(C2c3cccc4cccc(c34)C3CCC(=O)N32)cc(O)c1O (stereo not given)
TGI (A549 NSCLC): > 50 µM
TGI (UACC-62 melanoma): > 50 µM
TGI (HCT-15 colon): > 50 µM
TGI (SNB-19 CNS): > 50 µM
TGI (HT29 colon): > 50 µM
TGI (RPMI-8226 leukemia): 30.9 µM
TGI (OVCAR-3 ovarian): > 50 µM
TGI (CCRF-CEM leukemia): 31.4 µM

COc1ccc2oc(=N)c(C(N)=S)cc2c1
TGI (A549 NSCLC): > 100 µM
TGI (UACC-62 melanoma): 34 µM
TGI (MALME-3M melanoma): 32.9 µM
TGI (HCT-15 colon): 36.7 µM
TGI (HCC-2998 colon): 33.6 µM
TGI (SNB-19 CNS): > 100 µM
TGI (TK-10 renal): 90.2 µM
TGI (HT29 colon): > 100 µM
TGI (RPMI-8226 leukemia): 82.3 µM
TGI (SF-268 CNS): 64.3 µM
TGI (CCRF-CEM leukemia): > 100 µM

Nc1ccc(N=Nc2ccc(/C=C/c3ccc(N=Nc4ccc(N)c5ccc(S(=O)(=O)O)cc45)cc3S(=O)(=O)O)c(S(=O)(=O)O)c2)c2cc(S(=O)(=O)O)ccc12
TGI (A549 NSCLC): > 100 µM
TGI (UACC-62 melanoma): > 100 µM
TGI (MALME-3M melanoma): > 100 µM
TGI (HCT-15 colon): > 100 µM
TGI (HCC-2998 colon): > 100 µM
TGI (SNB-19 CNS): > 100 µM
TGI (HT29 colon): > 100 µM
TGI (RPMI-8226 leukemia): > 100 µM
TGI (SF-268 CNS): > 100 µM
TGI (OVCAR-3 ovarian): > 100 µM
TGI (CCRF-CEM leukemia): > 100 µM

CCCOC(=O)c1cc(C(=CCC[C@H]2CC[C@@]3(C)[C@@H](CC[C@@H]4[C@@H]3CC[C@]3(C)[C@@H](C(C)CCCC(C)C)CC[C@@H]43)C2)c2cc(Cl)c(O)c(C(=O)OCCC)c2)cc(Cl)c1O (stereo not given in full)
TGI (UACC-62 melanoma): > 50 µM
TGI (HCT-15 colon): > 50 µM
TGI (HCC-2998 colon): > 50 µM
TGI (SNB-19 CNS): > 50 µM
TGI (HT29 colon): > 50 µM
TGI (RPMI-8226 leukemia): > 50 µM
TGI (SF-268 CNS): > 50 µM
TGI (OVCAR-3 ovarian): > 50 µM
TGI (CCRF-CEM leukemia): > 50 µM
